Test results taken from PMC3017119, “Structural Basis for the Recognition of Cellular mRNA Export Factor REF by Herpes Viral Proteins HSV-1 ICP27 and HVS ORF57” (PLoS Pathogens, 2011).
Where two headings read alike, the source gives them in different places. Where no end group is shown, it is not given here.

Tests used:
Format in all cases: binding, murine
[1] = biological target: T1, REF^54–155 (REF2-I RRM domain) (Mus musculus, UniProt Q9JJW6); test: NMR chemical shift titration of 15N-REF^54–155 with viral peptides (dissociation constants)
T1 construct: made in house
Procedure: A separate titration of each peptide was carried out under the same sample conditions. Increasing amounts of peptide were added to a ^15N-REF^54–155 sample, achieving binding saturation whenever possible. Throughout these titrations amide chemical shift changes were monitored to assess the relative binding affinity of these peptides for REF and simultaneously map their binding sites. Estimates of dissociation constants were obtained for each peptide, and for the longer viral adaptor fragments (Table 2). […] A reduction in affinity was more pronounced in the L108A mutant, with the R107A mutation virtually abolishing the binding. […] This agrees with the NMR mapping data that a longer sequence from ORF57 (residues 103–120) is involved in REF binding. […] These latter two viral adaptors lack the signature Trp residue, and additionally in KSHV-ORF57 the Arg within the triad is replaced by Lys. As a further control, we also checked if binding of the viral peptides is specific to the RRM domain of REF, or if it can occur with RRMs of other proteins as well. The proteins SF2 [37] and 9G8 [38] bind TAP/p15 and have roles in splicing and mRNA export somewhat similar to that of REF/Aly. They also contain an RRM domain and are therefore structurally homologous to REF/Aly. To test if the same ICP27 motif could interact with these RRM domains, we added a 5-fold excess of WT ICP27^103–112 peptide to ^15N-labelled SF2 [37] and 9G8 [38]. […] These experiments confirmed that the recognition of the REF RRM domain by viral adaptor proteins is highly specific, and the isolated peptides ICP27^103–112, ICP27^103–110 and ORF57^103–120 are able to bind REF as efficiently as longer fragments of these viral proteins.
All experiments were carried out at 30°C on Bruker DRX600, DRX700 and Varian Inova 800 MHz spectrometers equipped with cryoprobes. The weighted chemical shift changes of amide signals δCS caused by complex formation were measured as [drawing 1] , where Δδ^H and Δδ^N were changes in proton and nitrogen chemical shifts, respectively. Standard triple-resonance experiments were used to assign spectra of ICP27^103–138, ORF57^8–120 and REF^54–155 in their free and bound states. Additionally, carbon-detection experiments (CON, CaCO, CbCaCO, CbCaCO(N), CbCaNCO) were used as an aid to the ORF57 assignment. Spectra were processed using NMRpipe and Topspin 2.1 (Bruker) and analysed using Sparky (University of California). Distance restraints obtained from 3D ^15N- and ^13C edited NOESY-HSQC experiments (τm 120 ms) and dihedral restraints from TALOS [51] were used in structure calculations by CYANA [52]. Additionally, intermolecular contacts were unambiguously identified using ^13C edited, ^12C-filtered NOESY-HSQC (τm 150 ms) spectra acquired on Varian Inova 800 MHz spectrometer. In this experiment only NOE crosspeaks between ^1H-^13C moieties of ^13C,^15N-labelled REF and ^1H(^12C) of unlabelled ICP27 peptide were observed, [54]. A final ensemble contained 20 structures with lowest target function values. Images were generated using Pymol (DeLano Scientific). For the REF - ICP27 complex, structure coordinates and experimental constraints have been deposited into the Protein Data Bank and chemical shifts in the BioMagResBank (access numbers 2kt5 and bmr16683 respectively). Other chemical shift assignments deposited in the BioMagResBank are: free ICP27^103–138 bmr16696, free REF^54–155 bmr16697, and ORF57^8–120 bmr16698 (both free and bound to REF^54–155).
Unlabelled synthetic peptides were obtained from Peptide Protein Research Ltd (UK). The synthetic peptide sequences used were from Varicella-zoster virus ORF4^108–119 (AAY57694), Kaposi's sarcoma-associated herpesvirus ORF57^100–110 (YP_001129410), Herpesvirus Saimiri ORF57^103–120 & 105–115 (CAC84353), Herpes simplex virus 1 ICP27^103–110 & 103–112 (AAF43147). […]

GST-REF2-I = GST-REF2-I pull down of 35S-radiolabelled ICP27 fragments; conditions: 35S-radiolabelled protein from rabbit reticulocytes, glutathione beads, RB100 buffer pH 7.5, 10 µg/ml RNAse A; SDS-PAGE, PhosphoImage
Description: To confirm the position of REF-binding domains within ICP27 and ORF57 and to minimise the size of constructs for more detailed NMR mapping, a series of fragments derived from HSV-1 ICP27 were screened for binding to GST-REF2-I using pull down assays (Fig. 1). […] The REF-binding fragment of ORF57 aa 8–120 identified previously similarly interacted with the same fragments of REF (Fig. 1D).
Figure 1 Identification of regions for the interactions between REF and ICP27/ORF57. (A) Subdivision of ICP27, ORF57 and REF2-I in fragments. […] (C) Fusion of the ICP27^103–138 peptide to GST allows a specific pull down of REF, REF^1–155 (NM) and REF^54–155 (Δ53) and a very weak pull down of the REF^1–70 (N); no interaction is detected with the control Ras protein. (D) Same pull down assay as panel C but using GST fusion of ORF57 aa 8–120 in place of ICP27.
GST or GST protein fusions were first immobilised on 30 µl slurry glutathione-coated beads (GE Healthcare) before 8 µl ^35S-radiolabelled proteins synthesised in rabbit reticulocytes (Promega) were added to the binding reactions in RB100 buffer (25 mM HEPES pH 7.5/100 mM KOAc/10 mM MgCl2/1 mM DTT/0.05% Triton X-100/10% glycerol) in presence of 10 µg/ml RNAse A. Washed and eluted protein complexes were resolved on 15% SDS-PAGE stained with Coomassie blue and analysed by PhosphoImage. […]

[2] = tested on: REF^156–218 (REF2-I C-terminal domain); test: NMR 1H-15N correlation spectra of 15N-labelled REF^156–218 with added viral protein constructs; conditions: 2-fold excess of viral construct; 15N-HSQC

Substance | Kd [1] | also measured
SVWSALGARR [ICP27^103–112 R107A] | > 10000 µM | 
SCKTSAADRVREAAAQRR [HVS ORF57^103–120 W108A] | > 7500 µM | 
TGYARIERGHRR [VZV ORF4^108–119] | > 1000 µM | 
ICP27^1–103: fragment aa 1–103 of HSV-1 ICP27 |  | Binding to GST-REF2-I in pull down (GST-REF2-I): no binding
KTSWADRVREA [HVS ORF57^105–115] | > 1000 µM | 
SVASRLGARR [ICP27^103–112 W105A] | 550 ± 210 µM | 
SCKTSWADRAREAAAQRR [HVS ORF57^103–120 V112A] | 156 ± 32 µM | 
NRYGKKIKFGT [KSHV ORF57^100–110, reference compound] | > 100000 µM | 
SCKTSWADAVREAAAQRR [HVS ORF57^103–120 R111A] | 254 ± 50 µM | 
SVWSRAGARR [ICP27^103–112 L108A] | > 5000 µM | 
ICP27^139–512: fragment aa 139–512 of HSV-1 ICP27 |  | Binding to GST-REF2-I in pull down (GST-REF2-I): no binding
…SCKTSWADRVREAAAQRR [HVS ORF57^8–120, recombinant fragment aa 8–120 of Herpesvirus saimiri ORF57, with T7 and poly-His tags] |  | Kd ([1]; chemical shift changes in 1H-15N correlation spectra of 100 µM 15N-REF^54–155 versus increasing peptide concentration, fitted to standard equation, 30°C, NMR buffer 20 mM phosphate, 50 mM NaCl, 50 mM L-Arg/L-Glu/β-mercaptoethanol, 10 mM EDTA, pH 6.2, read-out: K D): 78 ± 12 µM; Changes in 1H-15N correlation spectra of 15N-REF^156–218 upon addition [2]: No significant changes
